In article PMC5053481, “Structural Insights into the Methylation of C1402 in 16S rRNA by Methyltransferase RsmI” (PLoS ONE, 2016):

Legend:
RsmI (G12-P258) = RsmI (G12-P258) (Escherichia coli, UniProt P67087); assay: X-ray crystal structure, […] Å; format: binding; details: co-crystallised, AdoMet:RsmI 5:1; site between NTD and CTD
RsmI (full-length) [1] = molecular target: RsmI (full-length) (Escherichia coli, UniProt P67087, Y169A); assay: isothermal titration calorimetry, one-site model; format: binding; details: read-out: Ka (10^4/M) (converted)
RsmI (full-length) (Escherichia coli, UniProt P67087, Y169A), sequence (P67087 whole entry Y169A): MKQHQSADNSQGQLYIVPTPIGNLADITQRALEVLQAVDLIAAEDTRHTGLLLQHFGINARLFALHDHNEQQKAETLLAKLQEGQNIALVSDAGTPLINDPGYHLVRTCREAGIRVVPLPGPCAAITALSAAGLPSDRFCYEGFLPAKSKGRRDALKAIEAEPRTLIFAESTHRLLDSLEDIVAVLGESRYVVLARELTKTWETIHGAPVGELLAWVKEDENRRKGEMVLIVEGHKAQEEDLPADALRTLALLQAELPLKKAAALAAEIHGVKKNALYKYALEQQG

RsmI (full-length) [2] = molecular target: RsmI (full-length) (Escherichia coli, UniProt P67087); assay: isothermal titration calorimetry, one-site model; format: binding; details: read-out: Ka (10^4/M) (converted)
RsmI (full-length) (Escherichia coli, UniProt P67087), sequence (P67087 whole entry): as the sequence (P67087 whole entry Y169A) above, with A169Y counted along it

RsmI (full-length) [3] = molecular target: RsmI (full-length) (Escherichia coli, UniProt P67087, F144A); assay: isothermal titration calorimetry, one-site model; format: binding; details: read-out: Ka (10^4/M) (converted)
RsmI (full-length) (Escherichia coli, UniProt P67087, F144A), sequence (P67087 whole entry F144A): as the sequence (P67087 whole entry Y169A) above, with F144A, A169Y counted along it

[4] = molecular target: the molecule itself; assay: SEC; gel filtration on Superdex 200 10/300 GL; purified RsmI (Gly12-Pro258) eluted at 15.0 ml, compared with protein standards

Molecule | X-ray crystal structure, 2.20 Å (RsmI (G12-P258)) | Kd (RsmI (full-length) [1]) | Kd (RsmI (full-length) [2]) | Kd (RsmI (full-length) [3]) | stoichiometry N [4]
C[S+](CC[C@H](N)C(=O)O)C[C@H]1O[C@@H](n2cnc3c(N)ncnc32)[C@H](O)[C@@H]1O (some centres unmarked) [AdoMet] | coordinate and structure factor of RsmI-AdoMet complex have been deposited with the RCSB PDB | 24.2 µM | 23.3 µM | 67.6 µM | 
RsmI truncation Gly12-Pro258 (E. coli 16S rRNA 2'-O-methyltransferase RsmI) (domain or fragment, Escherichia coli, UniProt P67087 12-258, looked up, RsmI, AdoMet-dependent methyltransferase for 2'-O-methylation of C1402 in 16S rRNA, Escherichia coli, residues Gly12-Pro258; It was co-crystallised with the cofactor AdoMet; The asymmetric unit holds three molecules: one non-crystallographic dimer and one half of a crystallographic dimer; also called RmsI; RsmI (G12-P258); source: expressed and purified as reported previously [15]) GQLYIVPTPIGNLADITQRALEVLQAVDLIAAEDTRHTGLLLQHFGINARLFALHDHNEQQKAETLLAKLQEGQNIALVSDAGTPLINDPGYHLVRTCREAGIRVVPLPGPCAAITALSAAGLPSDRFCYEGFLPAKSKGRRDALKAIEAEPRTLIFYESTHRLLDSLEDIVAVLGESRYVVLARELTKTWETIHGAPVGELLAWVKEDENRRKGEMVLIVEGHKAQEEDLPADALRTLALLQAELP |  |  |  |  | 2
